Reference: article doi:[…]/2021.10.07.463234v2 (biorxiv, 2021)
Structures can show the parent of a compound that is named as a salt.

The compounds below were run against SARS-CoV-2 Mac1 (Severe acute respiratory syndrome coronavirus 2, UniProt P0DTD1) (assay: biochemical). Details: read-out: %inhibition.
In the case of `O=[N+]([O-])c1ccc(O)c2ncccc12` [Nitroxoline], the inhibition at 100 µM is reported as 0%.
`CNC(=C[N+](=O)[O-])NCCSCc1csc(CN(C)C)n1` [Nizatidine] gave an inhibition at 100 µM of 46.1%.
`CCCCCCCCC(=O)NCc1ccc(O)c(OC)c1` [Nonivamide] was tested, and the inhibition at 100 µM was 1.16%.
In the case of `NC[C@H](O)c1ccc(O)c(O)c1` [Noradrenaline bitartrate monohydrate], the inhibition at 100 µM is reported as 18.9%.
`C#C[C@]1(O)CC[C@H]2[C@@H]3CCC4=CC(=O)CC[C@@H]4[C@H]3CC[C@@]21C` [Norethindrone] was tested, and the inhibition at 100 µM was 0%.
For `CCn1cc(C(=O)O)c(=O)c2cc(F)c(N3CCNCC3)cc21` [Norfloxacin], the inhibition at 100 µM was 24.7%.
Compound `C#CC1(O)CC[C@H]2[C@@H]3CCC4=CC(=O)CC[C@@H]4[C@H]3CC[C@@]21CC` (stereo partly drawn) [Norgestrel] has an inhibition at 100 µM of 0%.
For `CNCCC=C1c2ccccc2CCc2ccccc21` [Nortriptyline hydrochloride], the inhibition at 100 µM was 0%.
`OC1C[C@H]2CC[C@@H](C1)N2` (stereo partly drawn) [Nortropine Hydrochloride] showed an inhibition at 100 µM of 6.37%.
`CO[C@@H]1[C@@H](OC(N)=O)[C@@H](O)[C@H](Oc2ccc3c(O)c(NC(=O)c4ccc(O)c(CC=C(C)C)c4)c(=O)oc3c2C)OC1(C)C` [Novobiocin Sodium] gave an inhibition at 100 µM of 0%.
`CC[C@H]1[C@@H](O)[C@@H]2[C@H](CC[C@]3(C)[C@@H]([C@H](C)CCC(=O)O)CC[C@@H]23)[C@@]2(C)CC[C@@H](O)C[C@@H]12` [Obeticholic Acid] gave an inhibition at 100 µM of 37.3%.
In the case of `CNS(=O)(=O)C[C@H]1CC[C@H](N(C)c2[nH]cnc3nccc2-3)CC1` [Oclacitinib?maleate], the inhibition at 100 µM is reported as 0%.
With `CCCCCCCCN=c1ccn(CCCCCCCCCCn2ccc(=NCCCCCCCC)cc2)cc1` [Octenidine Dihydrochloride] the inhibition at 100 µM was 16%.
With `CCCCC(CC)COC(=O)C=Cc1ccc(OC)cc1` (stereo not drawn) [Octinoxate] the inhibition at 100 µM was 0%.
With `CCCCC(CC)COC(=O)C(C#N)=C(c1ccccc1)c1ccccc1` (stereo not drawn) [Octocrylene] the inhibition at 100 µM was 0%.
For `O=C(c1cc(Cc2n[nH]c(=O)c3ccccc23)ccc1F)N1CCN(C(=O)C2CC2)CC1` [Olaparib (AZD2281, Ku-0059436)], the inhibition at 100 µM was 20.2%.
For `CCCc1nc(C(C)(C)O)c(C(=O)OCc2oc(=O)oc2C)n1Cc1ccc(-c2ccccc2-c2nnn[nH]2)cc1` [Olmesartan Medoxomil], the inhibition at 100 µM was 0%.
For `CCCc1nc(C(C)(C)O)c(C(=O)O)n1Cc1ccc(-c2ccccc2-c2nnn[nH]2)cc1` [Olmesartan], the inhibition at 100 µM was 0%.
In the case of `C=CC(=O)Nc1cccc(Oc2nc(Nc3ccc(N4CCN(C)CC4)cc3)nc3ccsc23)c1` [Olmutinib (HM61713, BI 1482694)], the inhibition at 100 µM is reported as 22.3%.
Compound `CN(C)CC/C=C1/c2ccccc2COc2ccc(CC(=O)O)cc21` [Olopatadine HCl] has an inhibition at 100 µM of 2.14%.
`Cc1[nH]c(=O)c(C#N)cc1-c1ccc2nccn2c1` [Olprinone] showed an inhibition at 100 µM of 0%.
For `O=C(O)c1cc(/N=N/c2ccc(O)c(C(=O)O)c2)ccc1O` [Olsalazine Sodium], the inhibition at 100 µM was 11.8%.
With `Cc1c(-c2cnccn2)ssc1=S` [Oltipraz] the inhibition at 100 µM was 0%.
In the case of `CS(=O)(=O)n1cc2c(n1)CN([C@H]1CO[C@H](c3cc(F)ccc3F)[C@@H](N)C1)C2` [Omarigliptin (MK-3102)], the inhibition at 100 µM is reported as 0%.
Work on `COc1ncc(-c2ccc3nccc(-c4ccnnc4)c3c2)cc1NS(=O)(=O)c1ccc(F)cc1F` [Omipalisib (GSK2126458, GSK458)] yielded an inhibition at 100 µM of 7.47%.
`CC(C)c1cc(C(=O)N2Cc3ccc(CN4CCN(C)CC4)cc3C2)c(O)cc1O` [Onalespib (AT13387)] was tested, and the inhibition at 100 µM was 5.85%.
Work on `Cc1nccn1CC1CCc2c(c3ccccc3n2C)C1=O` (stereo not drawn) [Ondansetron Hydrochloride Dihydrate] yielded an inhibition at 100 µM of 0%.
Work on `Cc1[nH]c(/C=C2\C(=O)Nc3ccccc32)c(C)c1CCC(=O)O` [Orantinib (TSU-68, SU6668)] yielded an inhibition at 100 µM of 16.7%.
For `CCCCCCCCCCC[C@@H](C[C@@H]1OC(=O)[C@H]1CCCCCC)OC(=O)[C@H](CC(C)C)NC=O` [Orlistat], the inhibition at 100 µM was 0%.
Compound `Cc1ncc([N+](=O)[O-])n1CC(O)CCl` (stereo not drawn) [Ornidazole] has an inhibition at 100 µM of 17.6%.
